Experimental data as given in patent publication US11572590B2, “Methods for evaluating tumor cell spheroids using 3D microfluidic cell culture device” (Dana-Farber Cancer Institute, Inc., priority 2017, dated 2023).
Like-named read-outs stand apart in the source and are kept apart here.

What was measured:
Assay in all cases: SelectScreen Kinase Profiling, single point inhibition and IC50 for off-target kinases
Type in all cases: biochemical
off-target kinases [1] = target: off-target kinases (Homo sapiens, UniProt Q13153); settings: PAK1, ZLYTE, ATP Km app
off-target kinases [2] = target: off-target kinases (Homo sapiens, UniProt P48729); settings: CSNK1A1 (CK1 alpha 1), ZLYTE, ATP Km app
off-target kinases [3] = target: T1, off-target kinases (Homo sapiens, UniProt P51955); settings: NEK2, ZLYTE, ATP Km app
T1 sequence (P51955 1-445): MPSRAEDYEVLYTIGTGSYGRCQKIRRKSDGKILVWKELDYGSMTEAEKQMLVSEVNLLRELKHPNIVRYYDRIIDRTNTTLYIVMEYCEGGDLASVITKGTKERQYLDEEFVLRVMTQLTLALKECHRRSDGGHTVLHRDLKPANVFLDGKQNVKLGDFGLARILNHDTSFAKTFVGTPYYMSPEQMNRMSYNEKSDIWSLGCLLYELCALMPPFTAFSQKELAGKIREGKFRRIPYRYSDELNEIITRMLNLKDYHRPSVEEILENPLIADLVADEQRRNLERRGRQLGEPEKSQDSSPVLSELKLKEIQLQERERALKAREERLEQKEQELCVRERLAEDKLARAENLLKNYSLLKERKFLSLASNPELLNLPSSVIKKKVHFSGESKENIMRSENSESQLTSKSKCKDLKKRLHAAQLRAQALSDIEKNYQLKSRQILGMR

Chain of off-target kinases (Homo sapiens, UniProt P48729) (P48729 whole entry): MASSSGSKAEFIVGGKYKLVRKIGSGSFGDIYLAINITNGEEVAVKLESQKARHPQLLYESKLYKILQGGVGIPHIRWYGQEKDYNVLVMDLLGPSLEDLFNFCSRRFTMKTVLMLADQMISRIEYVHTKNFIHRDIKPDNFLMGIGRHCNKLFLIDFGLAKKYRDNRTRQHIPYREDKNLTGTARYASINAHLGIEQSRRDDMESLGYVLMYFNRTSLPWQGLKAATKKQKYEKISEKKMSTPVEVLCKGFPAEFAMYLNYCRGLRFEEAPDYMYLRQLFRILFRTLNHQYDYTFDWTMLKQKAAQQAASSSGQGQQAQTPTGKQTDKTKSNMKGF
Chain of off-target kinases (Homo sapiens, UniProt Q13153) (Q13153 whole entry): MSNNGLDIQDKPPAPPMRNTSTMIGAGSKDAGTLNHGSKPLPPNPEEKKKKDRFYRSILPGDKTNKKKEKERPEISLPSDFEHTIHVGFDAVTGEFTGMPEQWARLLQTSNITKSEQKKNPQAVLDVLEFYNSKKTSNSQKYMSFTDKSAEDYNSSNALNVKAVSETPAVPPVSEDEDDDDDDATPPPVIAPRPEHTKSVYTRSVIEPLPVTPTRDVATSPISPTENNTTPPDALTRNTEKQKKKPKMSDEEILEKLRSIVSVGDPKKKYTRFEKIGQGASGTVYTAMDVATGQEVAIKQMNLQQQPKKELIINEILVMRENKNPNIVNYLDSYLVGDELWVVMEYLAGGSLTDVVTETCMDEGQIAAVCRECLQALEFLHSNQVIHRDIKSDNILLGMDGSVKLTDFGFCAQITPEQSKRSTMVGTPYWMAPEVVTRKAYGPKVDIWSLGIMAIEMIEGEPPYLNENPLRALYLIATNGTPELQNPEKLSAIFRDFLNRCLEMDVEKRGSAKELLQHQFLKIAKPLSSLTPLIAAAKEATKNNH

N#Cc1cc(-c2ncnc(Nc3ccc(N4CCN(C5COC5)CC4)cc3)n2)ccc1OC1CCOCC1 [Compound 1, 5-(4-((4-(4-(oxetan-3-yl)piperazin-1-yl)phenyl)amino)-1,3,5-triazin-2-yl)-2-((tetrahydro-2H-pyran-4-yl)oxy)benzonitrile] was tested. Which inhibition (off-target kinases [1]; read-out: % Inhibition 1) did it give?
The inhibition was 8%.

And the inhibition (off-target kinases [1]; read-out: % Inhibition 2)?
Its inhibition is 8%.

What about the inhibition (off-target kinases [1]; read-out: % Inhibition Avg) of the same compound?
Its inhibition is 8%.

And the inhibition (off-target kinases [2]; read-out: % Inhibition 1)?
Its inhibition is 2%.

What about the inhibition (off-target kinases [2]; read-out: % Inhibition 2) of the same compound?
Its inhibition is 1%.

What about the inhibition (off-target kinases [2]; read-out: % Inhibition Avg) of the same compound?
Its inhibition is 1%.

What about the inhibition (off-target kinases [3]; read-out: % Inhibition 1) of the same compound?
Its inhibition is 29%.

What about the inhibition (off-target kinases [3]; read-out: % Inhibition 2) of the same compound?
Its inhibition is 30%.

And the inhibition (off-target kinases [3]; read-out: % Inhibition Avg)?
Its inhibition is 30%.
